Data from the supplement of paper PMC10307832.

Experiments:
Assay in all cases: relative viability (nuclei count vs DMSO), 5 days (fraction); higher = more cells survive
[1] = compound: CC1CC(=O)N(C2=CN=C(N=C2N1C3CCCC3)NC4=C(C=C(C=C4)C(=O)NC5CCN(CC5)C)OC)C [NPK76-II-72-1] + Nc1ncn([C@H]2C[C@H](O)[C@@H](CO)O2)c(=O)n1 [Decitabine] (partner 2 µM)
Summary of the method: (§1)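 Lung cancer cell lines were seeded in 1536-well plates and dosed by pin tool the next day, with either a single drug or a fixed anchor-drug dose combined with five library-drug doses (not always all listed) spaced in √10 steps. Five days later, one step fixed the cells and stained their nuclei (final 0.05% Triton X-100, 1% formaldehyde, 1 ug/ml Hoechst), and nuclei were counted on 4× images. Relative viability is the nuclei count in treated wells divided by the count in vehicle wells, and each value is the median of duplicate plates.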

[2] = compound: CC1CC(=O)N(C2=CN=C(N=C2N1C3CCCC3)NC4=C(C=C(C=C4)C(=O)NC5CCN(CC5)C)OC)C [NPK76-II-72-1] + O=C(CCCCCCC(=O)Nc1ccccc1)NO [Vorinostat] (partner 1 µM)
Summary of the method: as §1

[3] = compound: CC[C@@H]1C(=O)N(C)c2cnc(Nc3ccc(C(=O)NC4CCN(C)CC4)cc3OC)nc2N1C1CCCC1 [BI-2536] + CS(=O)(=O)CCNCc1ccc(-c2ccc3ncnc(Nc4ccc(OCc5cccc(F)c5)c(Cl)c4)c3c2)o1 [Lapatinib] (partner 2 µM)
Summary of the method: as §1

[4] = compound: CC[C@@H]1C(=O)N(C)c2cnc(Nc3ccc(C(=O)NC4CCN(C)CC4)cc3OC)nc2N1C1CCCC1 [BI-2536] + Cc1nc(NC(=O)N2CCC[C@H]2C(N)=O)sc1-c1ccnc(C(C)(C)C(F)(F)F)c1 [Alpelisib] (partner 2 µM)
Summary of the method: as §1

Cell Line | relative viability ([1]; first compound 0.01 µM) | relative viability ([1]; first compound 0.03162 µM) | relative viability ([1]; first compound 0.1 µM) | relative viability ([1]; first compound 0.3162 µM) | relative viability ([1]; first compound 1 µM) | relative viability ([2]; first compound 0.01 µM) | relative viability ([2]; first compound 0.03162 µM) | relative viability ([2]; first compound 0.1 µM) | relative viability ([2]; first compound 0.3162 µM) | relative viability ([2]; first compound 1 µM) | relative viability ([3]; first compound 0.01 µM) | relative viability ([3]; first compound 0.03162 µM) | relative viability ([3]; first compound 0.1 µM) | relative viability ([3]; first compound 0.3162 µM) | relative viability ([3]; first compound 1 µM) | relative viability ([4]; first compound 0.01 µM) | relative viability ([4]; first compound 0.03162 µM) | relative viability ([4]; first compound 0.1 µM) | relative viability ([4]; first compound 0.3162 µM) | relative viability ([4]; first compound 1 µM)
201T | 0.818 | 0.87 | 0.906 | 0.887 | 0.886 | 0.803 | 0.989 | 0.93 | 0.962 | 1.14 | 0.946 | 1.03 | 1.03 | 1.04 | 0.38 | 0.997 | 1.03 | 0.973 | 0.441 | 0.285
A549 | 0.429 | 0.332 | 0.327 | 0.233 | 0.312 |  |  |  |  |  | 1.05 | 0.813 | 0.476 | 0.053 | 0.0394 | 0.767 | 0.814 | 0.698 | 0.0447 | 0.0443
A-427 | 0.547 | 0.592 | 0.611 | 0.541 | 0.574 | 0.824 | 0.856 | 0.877 | 0.855 | 0.883 | 0.905 | 1.08 | 1 | 0.969 | 0.135 | 1.11 | 1.04 | 1.03 | 0.381 | 0.136
ABC-1 | 0.94 | 1 | 0.859 | 1.13 | 0.887 | 1 | 1.13 | 0.356 | 1.36 | 1.07 | 1.23 | 1.39 | 1.04 | 0.643 | 0.529 | 1.08 | 1.13 | 0.732 | 0.296 | 0.3
BEN | 0.661 | 0.713 | 0.671 | 0.743 | 0.76 | 0.61 | 0.711 | 0.598 | 0.591 | 0.636 | 0.631 | 0.578 | 0.479 | 0.228 | 0.235 | 1.05 | 0.779 | 0.695 | 0.261 | 0.245
CAL-12T |  |  |  |  |  | 0.532 | 0.798 | 0.687 | 0.812 | 0.688 | 0.646 | 0.799 | 0.582 | 0.186 | 0.177 | 1.13 | 1.07 | 1.08 | 0.173 | 0.141
COR-L23 | 0.423 | 0.473 | 0.469 | 0.384 | 0.454 | 0.408 | 0.519 | 0.408 | 0.427 | 0.48 | 1.05 | 0.776 | 0.357 | 0.0913 | 0.102 | 0.853 | 0.675 | 0.18 | 0.0928 | 0.0868
COR-L 105 | 0.622 | 0.65 | 0.448 | 0.616 | 0.69 | 0.747 | 0.807 | 0.832 | 0.82 | 0.989 | 0.309 | 0.364 | 0.271 | 0.248 | 0.269 | 0.744 | 1.07 | 0.817 | 0.252 | 0.26
Calu-6 |  |  |  |  |  |  |  |  |  |  | 0.957 | 0.666 | 0.703 | 0.122 | 0.132 | 0.985 | 0.682 | 0.285 | 0.0989 | 0.126
ChaGo-K-1 | 0.487 | 0.52 | 0.475 | 0.512 | 0.501 | 0.703 | 0.735 | 0.809 | 0.687 | 0.789 |  |  |  |  |  |  |  |  |  | 
EBC-1 |  |  |  |  |  |  |  |  |  |  | 0.21 | 0.194 | 0.203 | 0.174 | 0.155 | 0.852 | 0.799 | 0.564 | 0.175 | 0.179
EKVX | 0.329 | 0.353 | 0.34 |  | 0.387 | 0.634 | 0.736 | 0.684 |  | 0.921 | 0.199 | 0.205 | 0.205 | 0.142 | 0.117 | 0.933 | 0.826 | 0.791 | 0.175 | 0.138
EMC-BAC-2 | 0.978 | 1.01 | 0.986 | 0.969 | 1.08 | 0.423 | 0.186 | 0.493 | 0.416 | 0.524 | 0.881 | 0.837 | 0.767 | 0.182 | 0.154 | 0.741 | 0.886 | 0.604 | 0.161 | 0.12
EPLC-272H | 0.407 | 0.387 | 0.371 | 0.379 | 0.37 | 0.403 | 0.4 | 0.456 | 0.574 | 0.41 | 0.894 | 0.828 |  | 0.483 | 0.11 | 0.951 | 0.758 |  | 0.0883 | 0.114
H3255 | 0.622 | 0.58 | 0.614 |  | 0.688 | 0.873 | 0.605 | 0.722 |  | 0.797 | 0.256 | 0.225 | 0.076 | 0.117 | 0.143 | 0.691 | 0.492 | 0.37 | 0.252 | 0.241
HARA | 0.643 | 0.57 | 0.616 |  | 0.451 | 0.493 | 0.668 | 0.564 | 0.485 | 0.603 | 0.703 | 0.814 | 0.569 | 0.0764 | 0.0911 | 1.03 | 0.927 | 0.843 | 0.062 | 0.0695
HCC-15 | 0.559 | 0.675 | 0.638 | 0.682 | 0.671 | 0.785 | 0.914 | 0.814 | 0.767 | 0.91 | 0.857 | 0.81 | 0.496 | 0.248 | 0.123 | 0.835 | 0.73 | 0.691 | 0.142 | 0.117
HCC-44 | 0.991 | 1.08 | 0.931 | 0.922 | 0.968 | 1.08 | 1.22 | 1.11 | 1.09 | 1.1 | 1.07 | 0.988 | 0.287 | 0.0973 | 0.0863 | 0.775 | 0.705 | 0.423 | 0.0667 | 0.0737
